Assay results taken from PMC8037503, “Methiothepin Increases Chemotherapy Efficacy against Resistant Melanoma Cells” (Molecules, 2021).

Molecular target: T1, Ptch1 (Homo sapiens, UniProt Q13635)
T1 construct: human Ptch1 with C-terminal His-tag, DDM-solubilized from yeast membranes
T1 sequence (Q13635 1-1447): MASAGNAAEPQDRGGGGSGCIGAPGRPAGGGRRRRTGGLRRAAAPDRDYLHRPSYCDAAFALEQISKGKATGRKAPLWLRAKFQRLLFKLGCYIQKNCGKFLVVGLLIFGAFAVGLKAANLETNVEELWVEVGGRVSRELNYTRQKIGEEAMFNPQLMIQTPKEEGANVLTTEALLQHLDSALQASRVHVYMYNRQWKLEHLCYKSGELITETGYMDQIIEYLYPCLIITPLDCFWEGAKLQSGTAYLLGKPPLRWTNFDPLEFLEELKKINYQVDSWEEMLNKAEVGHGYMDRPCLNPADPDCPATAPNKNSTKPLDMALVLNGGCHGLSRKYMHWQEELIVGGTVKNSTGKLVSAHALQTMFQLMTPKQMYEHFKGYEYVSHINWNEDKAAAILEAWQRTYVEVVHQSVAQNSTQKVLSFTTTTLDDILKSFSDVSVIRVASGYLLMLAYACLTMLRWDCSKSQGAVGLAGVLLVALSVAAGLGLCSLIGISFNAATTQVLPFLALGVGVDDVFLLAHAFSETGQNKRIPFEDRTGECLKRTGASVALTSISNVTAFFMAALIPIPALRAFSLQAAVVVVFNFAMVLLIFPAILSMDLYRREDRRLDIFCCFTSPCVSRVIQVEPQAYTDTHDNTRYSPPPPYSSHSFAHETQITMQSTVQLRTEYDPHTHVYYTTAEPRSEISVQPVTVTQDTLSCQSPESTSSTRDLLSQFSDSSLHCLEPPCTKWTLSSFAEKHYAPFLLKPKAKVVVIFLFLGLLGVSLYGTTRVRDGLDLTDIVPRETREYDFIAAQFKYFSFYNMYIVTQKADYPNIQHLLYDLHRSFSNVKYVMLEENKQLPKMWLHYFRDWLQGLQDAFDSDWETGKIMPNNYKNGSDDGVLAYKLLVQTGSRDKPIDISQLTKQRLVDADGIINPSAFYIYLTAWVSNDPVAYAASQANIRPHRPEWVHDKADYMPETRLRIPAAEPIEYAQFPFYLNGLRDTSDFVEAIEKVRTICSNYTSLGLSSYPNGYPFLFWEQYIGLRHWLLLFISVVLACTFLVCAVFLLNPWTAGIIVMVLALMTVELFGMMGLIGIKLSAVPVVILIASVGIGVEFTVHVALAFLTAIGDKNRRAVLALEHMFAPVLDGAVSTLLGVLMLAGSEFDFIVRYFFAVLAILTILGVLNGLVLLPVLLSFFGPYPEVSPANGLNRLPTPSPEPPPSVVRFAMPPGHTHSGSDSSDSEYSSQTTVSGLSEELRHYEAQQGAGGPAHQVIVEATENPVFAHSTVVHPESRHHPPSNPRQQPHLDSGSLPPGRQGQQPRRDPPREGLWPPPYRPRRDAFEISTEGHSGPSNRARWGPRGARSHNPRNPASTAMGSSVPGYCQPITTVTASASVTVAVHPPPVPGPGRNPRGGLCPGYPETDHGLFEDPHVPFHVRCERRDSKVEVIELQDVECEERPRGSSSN
Assay: microscale thermophoresis on DDM-solubilized membranes from yeast expressing human Ptch1 (His-tag labelled)
Type: binding

CSc1ccc2c(c1)C(N1CCN(C)CC1)Cc1ccccc1S2 (stereo not shown) [P375, methiothepin]
Kd: ~7 µM
